14 molecules from patent publication US12180207B2 (ARRAY BIOPHARMA INC., priority 2018, dated 2024) can be followed below.

Experiment [1] concerns the target recombinant human FGFR2 cytoplasmic domain (amino acids 403-822) (Homo sapiens (Human), UniProt P21802). As to the kind of experiment: FGFR2 enzyme activity assay (LanthaScreen TR-FRET). The format is biochemical. Particulars: 15 μM ATP, 20 min incubation at 22° C., average of multiple determinations if made, read-out: FGFR2 Enz FRET IC50. Summed up: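 His-tagged FGFR2 cytoplasmic domain ([…]) with 100 nM Alexa Fluor 647-poly-GT peptide and 15 μM ATP in HEPES/MgCl2/Triton buffer, pH 7.5, 2% DMSO, 20 min at 22 °C. EDTA-quenched, Eu-PY20 antibody added, TR-FRET read after 60 min.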
(In general: In TR-FRET formats the signal depends on donor and acceptor labels being close together.)

Experiment [2] concerns the target FGFR3 (SEQ ID NO: 5, amino acids 449-759) (Homo sapiens (Human), UniProt P22607). As to the kind of experiment: LC/MS FGFR3 kobs assay (covalent protein modification). The format is binding. The conditions noted are these: 500 nM FGFR3, 3 μM compound. In a few lines:
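Timed reactions were stopped with 0.4% formic acid, and covalent adduct formation was measured by LC/MS on a Q-TOF with deconvolution of protein masses. Modified signal was normalized to DMSO-control unmodified protein at each time point; percent unmodified protein was fit to exponential decay to give kobs.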

The target of experiment [3] is FGFR1 (SEQ ID NO: 1, amino acids 458-765) (Homo sapiens (Human), UniProt P11362). As to the kind of experiment: LC/MS FGFR1 kobs assay (covalent protein modification). Type of experiment: binding. The conditions noted are these: 500 nM FGFR1, 3 μM compound. In a few lines:
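Covalent labeling of FGFR1 kinase domain (aa 458-765) tracked over time by intact-protein LC/MS after formic acid quench. kobs derived by fitting DMSO-normalized percent unmodified FGFR1 to an exponential decay model.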

The target in experiment [4] is phosphorylated FGFR3 (SEQ ID NO: 5, amino acids 449 to 759) (Homo sapiens (Human), UniProt P22607). As to the kind of experiment: FGFR enzyme binding assay (HTRF tracer displacement), FGFR3. Particulars: 5 nM phosphorylated FGFR3, average of multiple determinations if made. In a few lines: (§1)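 Compounds were tested for displacement of a tracer from human FGFR kinase in a time-resolved FRET binding format. After 60 minutes at 22° C, signal was read at two wavelengths and converted to percent of control, normalised between untreated wells and 1 μM reference inhibitor.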
Sequence of phosphorylated FGFR3 (SEQ ID NO: 5, amino acids 449 to 759) (P22607 449-759): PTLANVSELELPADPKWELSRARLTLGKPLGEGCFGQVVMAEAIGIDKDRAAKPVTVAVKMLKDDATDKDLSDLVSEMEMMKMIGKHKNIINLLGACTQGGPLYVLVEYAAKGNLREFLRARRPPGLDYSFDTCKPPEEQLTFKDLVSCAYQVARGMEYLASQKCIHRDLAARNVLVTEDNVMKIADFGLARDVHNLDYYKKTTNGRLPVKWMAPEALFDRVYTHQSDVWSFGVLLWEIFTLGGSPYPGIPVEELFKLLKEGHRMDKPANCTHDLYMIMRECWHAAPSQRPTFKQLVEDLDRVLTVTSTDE

For experiment [5], the target named is dephosphorylated FGFR1 (SEQ ID NO: 1, amino acids 458 to 765) (Homo sapiens (Human), UniProt P11362). As to the kind of experiment: FGFR enzyme binding assay (HTRF tracer displacement), FGFR1. The conditions noted are these: 5 nM dephosphorylated FGFR1, average of multiple determinations if made. Summed up: as §1
Sequence of dephosphorylated FGFR1 (SEQ ID NO: 1, amino acids 458 to 765) (P11362 458-765): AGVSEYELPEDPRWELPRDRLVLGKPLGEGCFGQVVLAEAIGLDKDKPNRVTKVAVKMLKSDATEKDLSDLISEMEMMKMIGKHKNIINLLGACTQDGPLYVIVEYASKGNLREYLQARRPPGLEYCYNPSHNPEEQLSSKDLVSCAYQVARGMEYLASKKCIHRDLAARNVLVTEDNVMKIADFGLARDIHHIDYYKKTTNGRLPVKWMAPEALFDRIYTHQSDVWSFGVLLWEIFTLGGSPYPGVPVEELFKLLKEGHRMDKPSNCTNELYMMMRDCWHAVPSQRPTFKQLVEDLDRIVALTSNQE
The target of experiment [6] is recombinant human FGFR1 catalytic domain (amino acids 308-731) (Homo sapiens (Human), UniProt P11362). Put plainly: FGFR1 enzyme activity assay (LanthaScreen TR-FRET). The format is biochemical. Particulars: 20 min incubation at 22° C., average of multiple determinations if made, read-out: FGFR1 Enz FRET IC50. Summed up:
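His-tagged FGFR1 kinase domain with 100 nM Alexa Fluor 647-poly-GT peptide and ATP in pH 7.5 HEPES/MgCl2 buffer with 2% DMSO, 20 min at 22 °C. Quenched with EDTA plus 2 nM Eu-PY20 antibody and read after 60 min. IC50 comes from a 4-parameter fit of percent of control.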

A word on the IC50: it is the concentration needed to halve the response being measured.

Sequence of recombinant human FGFR2 cytoplasmic domain (amino acids 403-822) (P21802 402-821): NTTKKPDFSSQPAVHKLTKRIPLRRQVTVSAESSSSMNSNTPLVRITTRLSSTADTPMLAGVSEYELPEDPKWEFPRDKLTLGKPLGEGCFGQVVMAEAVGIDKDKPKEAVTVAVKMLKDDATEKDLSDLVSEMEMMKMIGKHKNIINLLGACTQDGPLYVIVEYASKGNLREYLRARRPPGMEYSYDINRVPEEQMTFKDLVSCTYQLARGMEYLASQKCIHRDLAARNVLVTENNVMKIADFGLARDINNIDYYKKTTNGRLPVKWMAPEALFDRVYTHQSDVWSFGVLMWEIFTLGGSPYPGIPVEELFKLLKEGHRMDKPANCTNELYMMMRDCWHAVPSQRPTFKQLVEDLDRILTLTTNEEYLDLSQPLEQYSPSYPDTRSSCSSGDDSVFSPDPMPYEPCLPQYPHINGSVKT
Sequence of FGFR1 (SEQ ID NO: 1, amino acids 458-765) (P11362 458-765): as the sequence (P11362 458-765) above
Sequence of recombinant human FGFR1 catalytic domain (amino acids 308-731) (P11362 other isoform, or with tags, fused parts or gaps): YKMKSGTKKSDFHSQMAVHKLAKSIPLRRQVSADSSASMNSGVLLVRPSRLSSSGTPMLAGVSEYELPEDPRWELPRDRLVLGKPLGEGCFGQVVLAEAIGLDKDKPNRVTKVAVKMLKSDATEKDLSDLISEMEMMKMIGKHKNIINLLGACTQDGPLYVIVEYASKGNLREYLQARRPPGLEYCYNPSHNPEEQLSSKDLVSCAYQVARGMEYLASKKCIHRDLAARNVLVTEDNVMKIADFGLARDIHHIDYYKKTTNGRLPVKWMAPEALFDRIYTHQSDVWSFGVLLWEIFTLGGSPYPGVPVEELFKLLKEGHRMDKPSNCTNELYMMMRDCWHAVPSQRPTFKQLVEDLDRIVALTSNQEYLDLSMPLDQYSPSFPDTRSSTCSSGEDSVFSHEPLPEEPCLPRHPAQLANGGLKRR
Sequence of FGFR3 (SEQ ID NO: 5, amino acids 449-759) (P22607 449-759): as the sequence (P22607 449-759) above

For the molecule `C=CC(=O)Nc1ccc(C(=O)N2CC[C@H](n3cc(-c4cc(OC)c5c(C#N)cnn5c4)cn3)C2)c(C)c1` [Example 68, (S)-N-(4-(3-(4-(3-cyano-4-methoxypyrazolo[1,5-a]pyridin-6-yl)-1H-pyrazol-1-yl)pyrrolidine-1-carbonyl)-3-methylphenyl)acrylamide], the IC50 is 4 nM in experiment [1], 13 nM in experiment [4], 94 nM in experiment [5] and 6 nM in experiment [6]. In experiment [2], the “FGFR3 Enz kobs” value was determined as 0.0095 min⁻¹. In experiment [3], the “FGFR1 Enz kobs” value came out at 0.00181 min⁻¹.

As to `C=CC(=O)N1CC(C(=O)N2CC[C@H](n3cc(-c4cc(OC)c5c(C#N)cnn5c4)cn3)C2)C1` [Example 73, (S)-6-(1-(1-(1-acryloylazetidine-3-carbonyl)pyrrolidin-3-yl)-1H-pyrazol-4-yl)-4-methoxypyrazolo[1,5-a]pyridine-3-carbonitrile], the IC50 in experiment [1] turned out to be 4 nM; in experiment [4] it was 7 nM; in experiment [5] it was 58 nM; in experiment [6], 20 nM. The “FGFR3 Enz kobs” value in experiment [2] was 0.00908 min⁻¹. Moreover, in experiment [3], the “FGFR1 Enz kobs” value worked out at 0.00108 min⁻¹.

Take `C=CC(=O)Nc1ccc(C(=O)N2CC[C@H](n3cc(-c4cc(OC)c5c(C#N)cnn5c4)cn3)C2)cc1OC` [Example 71, (S)-N-(4-(3-(4-(3-cyano-4-methoxypyrazolo[1,5-a]pyridin-6-yl)-1H-pyrazol-1-yl)pyrrolidine-1-carbonyl)-2-methoxyphenyl)acryla72 mide]: the IC50 in experiment [1] turned out to be 4 nM; in experiment [4], 18 nM; in experiment [5], 147 nM; in experiment [6], 18 nM. In addition, in experiment [2], the “FGFR3 Enz kobs” value is 0.02545 min⁻¹. In experiment [3], the “FGFR1 Enz kobs” value amounted to 0.00457 min⁻¹.

For `C=CC(=O)Nc1ccc(C(=O)N2CCC[C@@H](n3cc(-c4cc(OC)c5c(C#N)cnn5c4)cn3)C2)cc1` [Example 23, (R)-N-(4-(3-(4-(3-cyano-4-methoxypyrazolo[1,5-a]pyridin-6-yl)-1H-pyrazol-1-yl)piperidine-1-carbonyl)phenyl)acrylamide], the IC50 is 12 nM in experiment [1], 54 nM in experiment [4], 431 nM in experiment [5] and 36 nM in experiment [6]. Further, in experiment [2], the “FGFR3 Enz kobs” value came out at 0.01176 min⁻¹. Further, the “FGFR1 Enz kobs” value in experiment [3] was 0.00247 min⁻¹.

Consider `C=CC(=O)Nc1ccccc1C(=O)N1CCC[C@@H](n2cc(-c3cc(OC)c4c(C#N)cnn4c3)cn2)C1` [Example 25, (R)-N-(2-(3-(4-(3-cyano-4-methoxypyrazolo[1,5-a]pyridin-6-yl)-1H-pyrazol-1-yl)piperidine-1-carbonyl)phenyl)acrylamide], for which the IC50 in experiment [1] worked out at 18 nM; in experiment [4], 52 nM; in experiment [5], 350 nM; in experiment [6], 53 nM. Further, in experiment [2], the “FGFR3 Enz kobs” value came out at 0.00672 min⁻¹. In addition, the “FGFR1 Enz kobs” value in experiment [3] was 0.00103 min⁻¹.

In the case of `C=CC(=O)N1CC(C(=O)N2CCC(n3cc(-c4cc(OC)c5c(C#N)cnn5c4)c(C)n3)CC2)C1` [Example 94, 6-(1-(1-(1-acryloylazetidine-3-carbonyl)piperidin-4-yl)-3-methyl-1H-pyrazol-4-yl)-4-methoxypyrazolo[1,5-a]pyridine-3-carbonitrile], the IC50 in experiment [1] was found to be 22 nM; in experiment [4], 18 nM; in experiment [5], 346 nM; in experiment [6] it was 73 nM. Besides, the “FGFR3 Enz kobs” value in experiment [2] was determined as 0.01518 min⁻¹. The “FGFR1 Enz kobs” value in experiment [3] turned out to be 0.00145 min⁻¹.

For `C=CC(=O)N1CC(C(=O)N2CC3CCC(C2)N3c2ccc(-c3cc(OC)c4c(C#N)cnn4c3)cn2)C1` [Example 51, 6-(6-(3-(1-acryloylazetidine-3-carbonyl)-3,8-diazabicyclo[3.2.1]octan-8-yl)pyridin-3-yl)-4-methoxypyrazolo[1,5-a]pyridine-3-carbonitrile], the IC50 was found to be 9 nM in experiment [1], 9 nM in experiment [4], 70 nM in experiment [5] and 34 nM in experiment [6]. In addition, the “FGFR3 Enz kobs” value in experiment [2] was determined as 0.01769 min⁻¹. For the same molecule, the “FGFR1 Enz kobs” value in experiment [3] was 0.00338 min⁻¹.

`C=CC(=O)N1CC(CN2CCC(n3ncc(-c4cc(OC)c5c(C#N)cnn5c4)c3C)CC2)(OC)C1` [Example 91, 6-(1-(1-((1-acryloyl-3-methoxyazetidin-3-yl)methyl)piperidin-4-yl)-5-methyl-1H-pyrazol-4-yl)-4-methoxypyrazolo[1,5-a]pyridine-3-carbonitrile]: the IC50 in experiment [1] was 99 nM; in experiment [4], 2 nM; in experiment [5] it was 284 nM; in experiment [6], 197 nM. The “FGFR3 Enz kobs” value in experiment [2] was 0.04322 min⁻¹. In experiment [3], the “FGFR1 Enz kobs” value amounted to 0.00431 min⁻¹.

Regarding `C=CC(=O)N1CC(CN2CCC(n3ncc(-c4cc(OC)c5c(C#N)cnn5c4)c3C)CC2)C1` [Example 89, 6-(1-(1-((1-acryloylazetidin-3-yl)methyl)piperidin-4-yl)-5-methyl-1H-pyrazol-4-yl)-4-methoxypyrazolo[1,5-a]pyridine-3-carbonitrile], the IC50 in experiment [1] turned out to be 50 nM; in experiment [4], 8 nM; in experiment [5], 236 nM; in experiment [6], 108 nM. The “FGFR3 Enz kobs” value in experiment [2] was 0.02499 min⁻¹. In addition, the “FGFR1 Enz kobs” value in experiment [3] amounted to 0.00364 min⁻¹.

Turning to `C=CC(=O)Nc1cccc(C(=O)N2CCC[C@@H](n3cc(-c4cc(OC)c5c(C#N)cnn5c4)cn3)C2)c1` [Example 24, (R)-N-(3-(3-(4-(3-cyano-4-methoxypyrazolo[1,5-a]pyridin-6-yl)-1H-pyrazol-1-yl)piperidine-1-carbonyl)phenyl)acrylamide], the IC50 in experiment [1] came to 23 nM; in experiment [4], 69 nM; in experiment [5], 310 nM; in experiment [6], 63 nM. Moreover, the “FGFR3 Enz kobs” value in experiment [2] was determined as 0.00708 min⁻¹. In addition, the “FGFR1 Enz kobs” value in experiment [3] turned out to be 0.0025 min⁻¹.

On to `C=CC(=O)N1CC(C)(CN2CCC(n3ncc(-c4cc(OC)c5c(C#N)cnn5c4)c3C)CC2)C1` [Example 90, 6-(1-(1-((1-acryloyl-3-methylazetidin-3-yl)methyl)piperidin-4-yl)-5-methyl-1H-pyrazol-4-yl)-4-methoxypyrazolo[1,5-a]pyridine-3-carbonitrile], for which the half-inhibitory concentration (IC50) in experiment [1] was found to be 56 nM; in experiment [4] it was 14 nM; in experiment [5], 379 nM; in experiment [6] it was 165 nM. Also, in experiment [2], the “FGFR3 Enz kobs” value is 0.01468 min⁻¹. Also, the “FGFR1 Enz kobs” value in experiment [3] amounted to 0.00243 min⁻¹.

On to `C=CC(=O)Nc1ccc(C(=O)N2CC[C@H](n3cc(-c4cc(OC)c5c(C#N)cnn5c4)cn3)C2)cc1` [Example 66, (S)-N-(4-(3-(4-(3-cyano-4-methoxypyrazolo[1,5-a]pyridin-6-yl)-1H-pyrazol-1-yl)pyrrolidine-1-carbonyl)phenyl)acrylamide], for which the 50% inhibitory concentration (IC50) in experiment [1] is 5 nM; in experiment [4], 10 nM; in experiment [5], 72 nM; in experiment [6], 16 nM. Besides, in experiment [2], the “FGFR3 Enz kobs” value came to 0.0223 min⁻¹. In addition, the “FGFR1 Enz kobs” value in experiment [3] came to 0.00332 min⁻¹.

For `C=CC(=O)N1CCC(C#N)(C(=O)N2CCC(n3cc(-c4cc(OC)c5c(C#N)cnn5c4)cn3)CC2)CC1` [Example 14, 6-(1-(1-(1-acryloyl-4-cyanopiperidine-4-carbonyl)piperidin-4-yl)-1H-pyrazol-4-yl)-4-methoxypyrazolo[1,5-a]pyridine-3-carbonitrile], the IC50 was 3 nM in experiment [1], 7 nM in experiment [4], 84 nM in experiment [5] and 8 nM in experiment [6]. In experiment [2], the “FGFR3 Enz kobs” value came to 0.00997 min⁻¹. For the same molecule, in experiment [3], the “FGFR1 Enz kobs” value stood at 0.00069 min⁻¹.

With `C=CC(=O)N1CC(OC)(C(=O)N2CCC(n3ncc(-c4cc(OC)c5c(C#N)cnn5c4)c3C)CC2)C1` [Example 88, 6-(1-(1-(1-acryloyl-3-methoxyazetidine-3-carbonyl)piperidin-4-yl)-5-methyl-1H-pyrazol-4-yl)-4-methoxypyrazolo[1,5-a]pyridine-3-carbonitrile], the IC50 in experiment [1] was found to be 69 nM; in experiment [4] it was 3 nM; in experiment [5], 202 nM; in experiment [6] it was 152 nM. For the same molecule, the “FGFR3 Enz kobs” value in experiment [2] was 0.05581 min⁻¹. The “FGFR1 Enz kobs” value in experiment [3] worked out at 0.00646 min⁻¹.
